Results on 17 compounds are retold here after patent US8999973B2, “Thieno[3,2-d]pyrimidine derivatives having inhibitory activity on protein kinases” (Hanmi Science Co., Ltd, priority 2010, dated 2015).

The IC50 is the midpoint of a concentration-inhibition curve. High values mean lower potency, low ones higher potency.

Residue numbers refer to the chain shown, from its start.

One assay has as its target T1, Bcr-Abl^wt (Homo sapiens, UniProt P00519).
T1 construct: purchased Millipore
T1 sequence (P00519 242-493 limits assumed): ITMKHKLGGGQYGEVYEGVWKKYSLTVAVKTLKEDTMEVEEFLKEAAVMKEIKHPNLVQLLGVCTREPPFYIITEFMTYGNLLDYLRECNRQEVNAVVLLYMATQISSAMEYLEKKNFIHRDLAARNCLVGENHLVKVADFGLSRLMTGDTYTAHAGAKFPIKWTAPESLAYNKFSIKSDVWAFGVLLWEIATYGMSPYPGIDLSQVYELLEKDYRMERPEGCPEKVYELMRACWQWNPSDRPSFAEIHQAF
Nature of the assay: Kinase activation assay (IC50), fluorescence polarization tyrosine kinase assay kit. Type of assay: biochemical. To be noted: kinase domain (Millipore), Poly (Glu, Tyr) 4:1 substrate, FP readout. The method, then:
(§1) Test 1: Kinase Activation Assay (IC50)
(§2) A kinase domain (Millipore) comprising the entire cytoplasmic sequences of Bcr-Abl^wt and Bcr-Abl^T315I mutation kinases and a tyrosine kinase assay kit (Panvera, P2837) were used to measure an inhibitory activation on Bcr-abl. Other kinases such as FGFR, Flt, KDR, PDGFR, Fms, Kit, Raf, Tie2, Src, and Ret were also measured by the same method. In order to prepare a sample, the each compound obtained in Examples 1 to 128 was diluted 10 times with a kinase buffer to a concentration of 10˜0.0001 μM.
(§3) The each kinase was diluted with a kinase buffer to a concentration of 30˜300 ng/assay by using the each Kd value. The kinase buffer consisted of 100 mM HEPES (PH 7.4), 25 mM MgCl2, 10 mM MnCl2, and 250 μM Na3VO4, being kept refrigerated after filtered.
(§4) The test was conducted in 96 well polystyrene round bottom plates. First, 10 μL of the diluted sample was combined with 10 μL of the enzyme solution at room temperature for 10 minutes using a shaker. 10 μL of Poly (Glu, Tyr) 4:1 (Sigma) matrix solution in an appropriate concentration and 10 μL of ATP solution (5˜300 μM) were added to the sample and subjected to a reaction at room temperature for 60 minutes in a shaker. After 60 minutes, an EDTA solution was added thereto to complete the kinase reaction and the reaction mixture was left in a shaker for 5 minutes at room temperature. A tracer, an antibody, and a fluorescence polarization (FP) diluted reaction solution were mixed at a ratio of 1:1:3 to prepare a detecting solution, 50 μL of which was added to the each sample and subjected to a reaction at room temperature for 30 minutes in a shaker. As fluorescing, light was blocked out and the FP value was measured using a FP instrument (excitation wavelength: 485 nm, and emission wavelength: 530 nm).
(§5) And the inhibition on kinase reaction was calculated for the sample in the range of 0˜100% as compared to the control group, and the concentration on x-axis at 50% inhibition was obtained as an inhibitory concentration (IC50) value.
(§6) 50% inhibitory concentration (IC50) Y=bottom+(top−bottom)/(1+10exp(X−log IC50)
For orientation: In fluorescence polarisation assays a small probe gives low polarisation when free and higher when bound to something large.

The target in the next assay is T2, Bcr-Abl^T315I (Homo sapiens, UniProt P00519, T315I).
T2 construct: purchased Millipore
T2 sequence (P00519 242-493 T315I limits assumed): T1 sequence (P00519 242-493 limits assumed) with T74I
The assay is described as above. To be noted: T315I mutation kinase domain (Millipore), Poly (Glu, Tyr) 4:1 substrate, FP readout. Type of assay: biochemical. The method, then: as §1, §2, §3, §4, §5, §6

Turning to `Cc1ccc(NC(=O)c2cc(-n3ccnc3C)cc(C(F)(F)F)c2)cc1NC(=O)c1csc2c(N)ncnc12` [Example 61, 4-amino-N-(2-methyl-5-(3-(2-methyl-1H-imidazole-1-yl)-5-(trifluoromethyl)benzamido)phenyl)thieno[3,2-d]pyrimidine-7-carboxamide], the IC50 at Bcr-Abl^wt and at Bcr-Abl^T315I was 1 to 100 nM throughout.
In the case of `COc1cccc(C(=O)Nc2ccc(C)c(NC(=O)c3csc4c(N)ncnc34)c2)c1` [Example 65, 4-amino-N-(5-(3-methoxybenzamido)-2-methylphenyl)thieno[3,2-d]pyrimidine-7-carboxamide], the IC50 against Bcr-Abl^wt lay in the range of 1 to 100 nM; against Bcr-Abl^T315I, 1000 to 10000 nM.
As for `Cc1ccc(NC(=O)c2ccc(C(F)(F)F)cc2)cc1NC(=O)c1csc2c(N)ncnc12` [Example 66, 4-amino-N-(2-methyl-5-(4-(trifluoromethyl)benzamido)phenyl)thieno[3,2-d]pyrimidine-7-carboxamide], the IC50 against Bcr-Abl^wt fell in the range of 100 to 1000 nM; on Bcr-Abl^T315I it was 1000 to 10000 nM.
As for `Cc1ccc(NC(=O)c2cc(C3CC3)on2)cc1NC(=O)c1csc2c(N)ncnc12` [Example 67, N-(3-(4-aminothieno[3,2-d]pyrimidine-7-carboxyamido)-4-methylphenyl)-5-cyclopropylisoxazol-3-carboxamide], the IC50 on Bcr-Abl^wt lay within 1 to 100 nM; against Bcr-Abl^T315I it was 1000 to 10000 nM.
For `Cc1cc(C(=O)Nc2ccc(C)c(NC(=O)c3csc4c(N)ncnc34)c2)n(Cc2ccc(F)cc2)n1` [Example 68, 4-amino-N-(5-(1-(4-fluorobenzyl)-3-methyl-1H-pyrazole-5-carboxyamido)-2-methylphenyl)thieno[3,2-d]pyrimidine-7-carboxamide], the IC50 against Bcr-Abl^wt and against Bcr-Abl^T315I was 1000 to 10000 nM throughout.
Regarding `Cc1ccc(NC(=O)c2cccc(C(F)(F)F)c2)cc1NC(=O)c1csc2c(NC3CCCC3)ncnc12` [Example 71, 4-(cyclopentylamino)-N-(2-methyl-5-(3-(trifluoromethyl)benzamido)phenyl)thieno[3,2-d]pyrimidine-7-carboxamide], the figures for the IC50 at Bcr-Abl^wt and against Bcr-Abl^T315I were 1 to 100 nM and 1000 to 10000 nM, respectively.
With `Cc1ccc(NC(=O)c2ccc(CN3CC[C@H](N(C)C)C3)c(C(F)(F)F)c2)cc1NC(=O)c1csc2c(NC3CC3)ncnc12` [Example 76, (S)-4-(cyclopropylamino)-N-(5-(4-((3-(dimethylamino)pyrrolidin-1-yl)methyl)-3-(trifluoromethyl)benzoamido)-2-methylphenyl)thieno[3,2-d]pyrimidine-7-carboxamide], the IC50 against Bcr-Abl^wt and at Bcr-Abl^T315I was 1 to 100 nM each time.
As to `CNc1ncnc2c(C(=O)Nc3cc(NC(=O)c4cc(-n5cnc(C)c5)cc(C(F)(F)F)c4)ccc3C)csc12` [Example 78, N-(2-methyl-5-(3-(4-methyl-1H-imidazole-1-yl)-5-(trifluoromethyl)benzoamido)phenyl)-4-(methylamino)thieno[3,2-d]pyrimidine-7-carboxamide], the IC50 at Bcr-Abl^wt was 1 to 100 nM; at Bcr-Abl^T315I, 100 to 1000 nM.
Consider `Cc1ccc(NC(=O)c2cc(-n3ccnc3C)cc(C(F)(F)F)c2)cc1NC(=O)c1csc2c(NC3CC3)ncnc12` [Example 83, 4-(cyclopropylamino)-N-(2-methyl-5-(3-(2-methyl-1H-imidazole-1-yl)-5-(trifluoromethyl)benzoamido)phenyl)thieno[3,2-d]pyrimidine-7-carboxamide], for which the IC50 against Bcr-Abl^wt and against Bcr-Abl^T315I was 1 to 100 nM in each case.
With `Cc1ccc(NC(=O)c2cc(N3CCOCC3)cc(C(F)(F)F)c2)cc1NC(=O)c1csc2c(NC3CC3)ncnc12` [Example 86], the IC50 at Bcr-Abl^wt was 1 to 100 nM; against Bcr-Abl^T315I, 100 to 1000 nM.
As for `Cc1ccc(NC(=O)c2ccc(CN3CCCN(C)CC3)c(C(F)(F)F)c2)cc1NC(=O)c1csc2c(NC3CC3)ncnc12` [Example 87, 4-(cyclopropylamino)-N-(2-methyl-5-(4-((4-methyl-1,4-diazepan-1-yl)methyl)-3-(trifluoromethyl)benzoamido)phenyl)thieno[3,2-d]pyrimidine-7-carboxamide], the IC50 against Bcr-Abl^wt and at Bcr-Abl^T315I was 1 to 100 nM each time.
Turning to `Cc1ccc(NC(=O)c2cc(N3CCCN(C)CC3)cc(C(F)(F)F)c2)cc1NC(=O)c1csc2c(NC3CC3)ncnc12` [Example 93, 4-(cyclopropylamino)-N-(2-methyl-5-(3-(4-methyl-1,4-diazepan-1-yl)-5-(trifluoromethyl)benzoamido)phenyl)thieno[3,2-d]pyrimidine-7-carboxamide], the IC50 against Bcr-Abl^wt and against Bcr-Abl^T315I was 1 to 100 nM throughout.
Regarding `CN(C)[C@H]1CCN(c2cc(C(=O)Nc3ccc(F)c(NC(=O)c4csc5c(NC6CC6)ncnc45)c3)cc(C(F)(F)F)c2)C1` [Example 107, (S)-4-(cyclopropylamino)-N-(5-(3-(3-(dimethylamino)pyrrolidine-1-yl)-5-(trifluoromethyl)benzoamido)-2-fluorophenyl)thieno[3,2-d]pyrimidine-7-carboxamide], the values for the IC50 against Bcr-Abl^wt and at Bcr-Abl^T315I were 1 to 100 nM and 100 to 1000 nM, respectively.
As for `CCN1CCN(c2cc(C(=O)Nc3ccc(C)c(NC(=O)c4csc5c(NC6CC6)ncnc45)c3)cc(C(F)(F)F)c2)CC1` [Example 110, 4-(cyclopropylamino)-N-(5-(3-(4-ethylpiperazin-1-yl)-5-(trifluoromethyl)benzoamido)-2-methylphenyl)thieno[3,2-d]pyrimidine-7-carboxamide], the IC50 is 1 to 100 nM against Bcr-Abl^wt and 100 to 1000 nM on Bcr-Abl^T315I.
As for `Cc1ccc(NC(=O)c2cc(N3CCC[C@H]3C)cc(C(F)(F)F)c2)cc1NC(=O)c1csc2c(NC3CC3)ncnc12` [Example 113, (R)-4-(cyclopropylamino)-N-(2-methyl-5-(3-(2-methylpyrrolidine-1-yl)-5-(trifluoromethyl)benzoamido)phenyl)thieno[3,2-d]pyrimidine-7-carboxamide], the IC50 against Bcr-Abl^wt and on Bcr-Abl^T315I was 100 to 1000 nM throughout.
As for `Cc1ccc(NC(=O)c2cc(NC3CCN(C)CC3)cc(C(F)(F)F)c2)cc1NC(=O)c1csc2c(NC3CC3)ncnc12` [Example 116, 4-(cyclopropylamino)-N-(2-methyl-5-(3-(1-methylpiperidine-4-ylamino)-5-(trifluoromethyl)benzoamido)phenyl)thieno[3,2-d]pyrimidine-7-carboxamide], the IC50 at Bcr-Abl^wt and against Bcr-Abl^T315I was 1 to 100 nM throughout.
Take `Cc1cn(-c2cc(C(=O)Nc3ccc(F)c(NC(=O)c4csc5c(NC6CC6)ncnc45)c3)cc(C(F)(F)F)c2)cn1` [Example 121, 4-(cyclopropylamino)-N-(2-fluoro-5-(3-(4-methyl-1H-imidazole-1-yl)-5-(trifluoromethyl)benzoamido)phenyl)thieno[3,2-d]pyrimidine-7-carboxamide]: the IC50 on Bcr-Abl^wt and against Bcr-Abl^T315I was 1 to 100 nM each time.
